Laboratory results published in patent publication US20180214582A1, “METHOD FOR DIAGNOSING CARCINOMAS USING IRGD AND MAGENTIC RESONANCE TOMOGRAPHY (MRT)” (Albrecht Piiper, priority 2015, published 2018).

Legend:
[1] = test system: HCCs in TGFα/c-myc mice; test: Doxorubicin tissue concentration after i.v. peptide in TGFα/c-myc mice with HCC; type: in vivo; details: peptide 4 mmol/kg i.v.; for doxorubicin level in the HCCs: doxorubicin 20 mg/kg iv 10 minutes later, tissues 30 minutes later; for levels of doxorubicin in the organs: doxorubicin 20 mg/kg iv, FIG. 2A
Excerpt: (§1) Male TGFα/c-myc bitransgenic mice were created by crossing homozygous metallothionein/TGFα and albumin/c-myc single-transgenic mice in a CD13B6CBA background as described (Murakami et al., 1993; Haupenthal et al., 2012). After weaning, the animals were given ZnCl2 by way of the drinking water to induce tumors via the expression of TGFα. Starting at an age of 20 weeks, the TGFα/c-myc animals underwent a Primovist-enhanced MRI scan in a 3T MRI Scanner (Siemens 113 Magnetom Trio, Siemens Medical Solutions) as described (Haupenthal et al., 2012; Watcharin et al., 2015; Korkusuz et al., 2013).
Furthermore, the effect of iRGD on the tissue concentrations of intravenously applied doxorubicin, a tumor therapeutic agent that can be detected due to the inherent fluorescence in tissue sections and tissue extracts, in the TGFα/c-myc and in the HepG2 xenotransplant HCC mouse model was analyzed. […] The control peptide had no effects on the doxorubicin level in any of the tissues.
TGFα/c-myc mice with radiologically verified HCCs (A) or nude mice with subcutaneous HepG2 xenotransplants (B) were intravenously injected with 4 mmol/kg iRGD or control peptide (each in PBS), or treated with PBS alone, followed by a doxorubicin (20 mg/kg iv) injection 10 minutes later. The tissues were collected another 30 minutes later and stored, and the doxorubicin concentration was determined. The values are mean values±SD; n=5 to 6. Asterisks indicate a significant difference (**P<0.01; ***P<0.001).

[2] = test system: HCCs in TGFα/c-myc mice; test: Gd-DTPA-enhanced MRI with and without peptide in TGFα/c-myc mice with HCC; type: in vivo; details: for contrast of HCC tumors in the liver in Gd-DTPA-enhanced MRI: T1-weighted 3T MRI
Excerpt: as §1
So as to determine the effect of iRGD on the Gd-DTPA-enhanced MRI in the HCC, TGFα/c mice with HCC according to a prior Gd-EOB-DTPA (Primovist)-enhanced MRI one week earlier, or nude mice with HepG2 or Huh7 tumors, were included in the experiments. The mice were anesthetized by way of intraperitoneal injection of ketamine (70 mg/kg body weight) and xylazine (10 mg/kg body weight), followed by a basal T1-weighted MRI. Directly thereafter, a Gd-DTPA-enhanced MRI was conducted (Haupenthal et al., 2012). Twelve to 24 hours later, either iRGD or the RGD control peptide was injected ([…] each via the tail vein), followed by a basal and a Gd-DTPA-enhanced MRI (Watcharin et al., 2015). For the quantitative analysis of the MRI data, the signal intensities in user defined “regions of interest” (ROI) were used (Korkusuz et al., 2013). ROIs were placed in the liver and in the tumor tissue. The changes in the signal intensities were ascertained by subtraction of the pre-contrast value from those after the administration of Gd-DTPA. The changes in the signal intensities of the tumors and the livers due to iRGD or the RGD control peptide were indicated as multiples of the values of the Gd-DTPA MRI with prior injection of PBS.
It was examined whether the tumor-permeabilizing effect of iRGD can already be detected by a Gd-DTPA-enhancing MRI, a widely used clinical procedure, in TGFα/c-myc mice with endogenous HCC. For this purpose, TGFα/c-myc mice with HCCs discovered one week prior according to Gd-EOB-DTPA-enhanced MRI were used. […] 12 to 24 hours later, the mice were administered iRGD or the RGD control peptide, followed by another Gd-DTPA-enhanced MRI.
TGFα/c-myc mice in which HCCs had been detected one week prior by way of Gd-EOB-DTPA-enhanced MRI were anesthetized, followed by a basal T1-weighted MRI, and a Gd-DTPA-enhanced MRI directly thereafter. 12 to 24 hours later, either iRGD or RGD control peptide (con. peptide) was injected (100 μL each via the tail vein, 4 mmol/kg) into the same animals, followed by a basal MRI and a Gd-DTPA-enhanced MRI. A. Gd-DTPA-enhanced MRI of TGFα/c-myc mice with HCC (left), followed by an injection of iRGD and another Gd-DTPA-enhanced MRI 12 hours thereafter. Arrows mark the tumor.
B. quantitative analysis of the MRI data. Values are mean values±SD; n=12.

[3] = test system: HepG2 xenotransplants; test: Doxorubicin tissue concentration after i.v. peptide in nude mice with HepG2 xenotransplants; type: in vivo; details: nude mice with subcutaneous HepG2 xenotransplants; peptide 4 mmol/kg i.v., doxorubicin 20 mg/kg iv
Experimental: HepG2- and Huh7 cells (ATCC and RIKEN BioResource Center) were cultivated in DMEM with 10% FBS and penicillin/streptomycin (Life Technologies). 5 million cells in 100 μL PBS were injected into the sides of NMRI Foxn1 nude mice (Harlan Laboratories B.V.). Four weeks later the mice were assigned to the test groups. Furthermore, the effect of iRGD on the tissue concentrations of intravenously applied doxorubicin, a tumor therapeutic agent that can be detected due to the inherent fluorescence in tissue sections and tissue extracts, in the TGFα/c-myc and in the HepG2 xenotransplant HCC mouse model was analyzed. […] The control peptide had no effects on the doxorubicin level in any of the tissues. TGFα/c-myc mice with radiologically verified HCCs (A) or nude mice with subcutaneous HepG2 xenotransplants (B) were intravenously injected with 4 mmol/kg iRGD or control peptide (each in PBS), or treated with PBS alone, followed by a doxorubicin (20 mg/kg iv) injection 10 minutes later. The tissues were collected another 30 minutes later and stored, and the doxorubicin concentration was determined. The values are mean values±SD; n=5 to 6. Asterisks indicate a significant difference (**P<0.01; ***P<0.001).

[4] = test system: HCCs in TGFα/c-myc mice; test: Evans blue accumulation after i.v. peptide in TGFα/c-myc mice with endogenous HCC; type: in vivo; details: peptide 4 mmol/kg i.v., then Evans blue; for concentration of Evans blue in normal tissue (liver, kidney, spleen and lung): photometry; for Evans blue quantity in the tumors compared to HCCs of mice injected with PBS or control peptide: tissues 30 minutes later, photometric quantification
Excerpt: as §1
So as to examine whether intravenously applied iRGD increases the permeability of the HCC, the effect of intravenously applied iRGD on the levels of co-injected Evans blue, an albumin-binding dye, in TGFα/c-myc mice with endogeneous HCCs according to a Gd-EOB-DTPA-enhanced MRI were analyzed. For this purpose, the mice with HCC were intravenously injected with iRGD, an RGD control peptide without a CendR motif, or PBS, followed by the injection of Evans blue […]. Another 30 minutes later, the animals were terminally perfused.
TGFα/c-myc mice with MRI-verified HCCs (A) or mice with subcutaneous HepG2 (B) or Huh7 xenotransplants (C) were intravenously injected with 4 mmol/kg iRGD or control peptide (each in PBS), or PBS was injected alone, followed by an injection of EB 5 minutes later. The tissues were harvested after another 30 minutes. The EB accumulation in the tissues was determined by way of photometry. The data involves mean values±SD; n=4 to 5. Asterisks indicate a significant difference (* P<0.05; […]; *** P<0.001). n.s., not significant.

[5] = test system: Huh7 xenotransplants; test: Evans blue accumulation after i.v. peptide in nude mice with Huh7 xenotransplants; type: in vivo, NMRI Foxn1 nude mice; details: subcutaneous Huh7 xenotransplants, peptide 4 mmol/kg i.v., p<0.001
Experimental: (§2) HepG2- and Huh7 cells (ATCC and RIKEN BioResource Center) were cultivated in DMEM with 10% FBS and penicillin/streptomycin (Life Technologies). 5 million cells in 100 μL PBS were injected into the sides of NMRI Foxn1 nude mice (Harlan Laboratories B.V.). Four weeks later the mice were assigned to the test groups.
(§3) So as to examine whether the tumor-permeabilizing effect of iRGD also occurs in HCC nude mice tumor models, the effect of intravenously applied iRGD on the level of co-applied Evans blue in nude mice which had HepG2 or Huh7 xenotransplants was analyzed. iRGD effectuated an increase in the concentrations of co-applied Evans blue in HepG2-xenotransplanted and Huh-7-xenotransplanted tumors by a factor of 3.4 (p≤0.002) (in HepG2 tumors) and 2.6-fold in Huh7 tumors (p<0.001) compared to the corresponding tumors of nude mice injected with PBS and the control peptide (FIGS. 1B and C).
(§4) TGFα/c-myc mice with MRI-verified HCCs (A) or mice with subcutaneous HepG2 (B) or Huh7 xenotransplants (C) were intravenously injected with 4 mmol/kg iRGD or control peptide (each in PBS), or PBS was injected alone, followed by an injection of EB 5 minutes later. The tissues were harvested after another 30 minutes. The EB accumulation in the tissues was determined by way of photometry. The data involves mean values±SD; n=4 to 5. […]

[6] = test system: HepG2 xenotransplants; test: Evans blue accumulation after i.v. peptide in nude mice with HepG2 xenotransplants; type: in vivo, NMRI Foxn1 nude mice; details: subcutaneous HepG2 xenotransplants, peptide 4 mmol/kg i.v., p≤0.002
Experimental: as §2, §3, §4

[7] = test system: Huh7 xenotransplants; test: Gd-DTPA-enhanced MRI with and without peptide in nude mice with Huh7 xenotransplants; type: in vivo; details: p=0.0081
Experimental: as §2
(§5) So as to determine the effect of iRGD on the Gd-DTPA-enhanced MRI in the HCC, TGFα/c mice with HCC according to a prior Gd-EOB-DTPA (Primovist)-enhanced MRI one week earlier, or nude mice with HepG2 or Huh7 tumors, were included in the experiments. The mice were anesthetized by way of intraperitoneal injection of ketamine (70 mg/kg body weight) and xylazine (10 mg/kg body weight), followed by a basal T1-weighted MRI. Directly thereafter, a Gd-DTPA-enhanced MRI was conducted (Haupenthal et al., 2012). Twelve to 24 hours later, either iRGD or the RGD control peptide was injected ([…] each via the tail vein), followed by a basal and a Gd-DTPA-enhanced MRI (Watcharin et al., 2015). For the quantitative analysis of the MRI data, the signal intensities in user defined “regions of interest” (ROI) were used (Korkusuz et al., 2013). ROIs were placed in the liver and in the tumor tissue. The changes in the signal intensities were ascertained by subtraction of the pre-contrast value from those after the administration of Gd-DTPA. […]

[8] = test system: HepG2 tumors; test: Gd-DTPA-enhanced MRI with and without peptide in nude mice with HepG2 xenotransplants; type: in vivo
Experimental: as §2, §5

[9] = test system: 4T1 tumor; test: Gd-DTPA-enhanced MRI with and without peptide in syngeneic 4T1 breast cancer mouse model; type: in vivo; details: BALB/c mice, 4T1 cells in mammary gland no. 4; peptide 4 mmol/kg; p<0.05
Experimental: 4T1 cells (ATCC) were cultivated in RPMI 1640 medium with 10% FBS and penicillin/streptomycin (Life Technologies). BALB/c mice were injected with 2.5×10^4 4T1 cells into mammary gland no. 4 of the mouse, and the tumors were allowed to grow for two weeks.
Furthermore, it was examined to what extent iRGD also influences the MRI signal of the tumor in the Gd-DTPA-enhanced MRI in the syngeneic 4T1 breast cancer mouse model.
Effect of iRGD and the RGD control peptide on the increase in the signal intensity in the Gd-DTPA-enhanced MRI in the liver and in the 4T1 tumors in BALB/c mice. BALB/c mice were injected with 2.5×10^4 4T1 cells into mammary gland no. 4 of the mouse. Two weeks later, the mice were anesthetized, followed by a basal T1-weighted MRI, and a Gd-DTPA-enhanced MRI directly thereafter. 12 to 24 hours later, either iRGD or RGD control peptide (con. peptide) was injected (100 μL each via the tail vein, 4 mmol/kg) into the same animals, followed by a basal MRI and a Gd-DTPA-enhanced MRI. The data was quantitatively analyzed. Values are mean values±SD; n=6.

CRGDDGPKC [RGD control peptide, RGD control peptide without a CendR motif; acquired from GenScript, reference compound]
doxorubicin level in the HCCs [1]: no effects
levels of doxorubicin in the organs [1]: no effects
signal intensities in normal organs in Gd-DTPA-enhanced MRI [2]: no effects
contrast of HCC tumors in the liver in Gd-DTPA-enhanced MRI [2]: negatively contrasted
doxorubicin level in the HCCs (HepG2 xenotransplants) [3]: no effects
concentration of Evans blue in normal tissue (liver, kidney, spleen and lung) [4]: had no impact
Evans blue quantity in the tumors compared to HCCs of mice injected with PBS or control peptide [4]: had no effect

O=C([O-])CN(CCN(CC(=O)[O-])CC(=O)O)CCN(CC(=O)[O-])CC(=O)O.[Gd+3] [Gd-DTPA, reference compound]
contrast of HCC tumors in the liver in Gd-DTPA-enhanced MRI [2]: highly negative contrasts

CRGDKGPDC [iRGD]
increase in concentration of co-applied Evans blue in Huh7 tumors vs PBS and control peptide [5]: 2.6 fold
increase in concentration of co-applied Evans blue in HepG2 tumors vs PBS and control peptide [6]: 3.4 fold
rise in signal intensity of the tumors in Gd-DTPA-enhanced MRI (Huh7) [7]: 1.5 fold
signal intensity of the tumors in Gd-DTPA-enhanced MRI (HepG2) ([8]; p=0.0311): rise in the signal intensity
rise in signal intensity of the tumors in Gd-DTPA-enhanced MRI, other HCC mouse models (HepG2) ([8]; stated for 'the other HCC mouse models'): ≤ 2 fold
doxorubicin level in the HCCs [1]: increase in the doxorubicin level
levels of doxorubicin in the organs [1]: no effects
signal intensities in normal organs in Gd-DTPA-enhanced MRI [2]: no effects
contrast of HCC tumors in the liver in Gd-DTPA-enhanced MRI [2]: contrasting positively
increase of signal intensities in the tumors in Gd-DTPA-enhanced MRI vs RGD control peptide or PBS ([2]; peptide 4 mmol/kg via tail vein, quantitative densitometric analysis, n=12): 2 fold
MRI signal in the Gd-DTPA-enhanced MRI in the 4T1 tumor [9]: significant increase in the MRI signal
doxorubicin level in the HCCs (HepG2 xenotransplants) [3]: increase in the doxorubicin level
concentration of Evans blue in normal tissue (liver, kidney, spleen and lung) [4]: had no impact
Evans blue quantity in the tumors compared to HCCs of mice injected with PBS or control peptide [4]: three-fold increase
